Series [1] can be described thus: Drug release experiment (dialysis of DOX-loaded particles, sink condition). Type of series: physicochemical. Conditions: 37° C., from AUC of release-time curve, normalized to initial drug loading (100%). Here is the method: Proton nuclear magnetic resonance (^1H-NMR, Varian, 400 MHz) measurements were used to determine the compositions of block copolymers and nanoassemblies in DMSO-d6 and D2O, respectively. The number average molecular weights (Mn) of block copolymers and nanoassemblies were calculated by gel permeation chromatography (GPC, Shimadzu LC20, Japan) equipped with RI and UV detectors, using PEG standard and a phosphate buffered saline (PBS, 1×) mobile phase. Particle sizes of nanoassemblies were determined by dynamic light scattering (DLS, Zetasizer Nano 90, Malvern, UK) measurements at a 173° fixed angle. All samples were prepared in aqueous solutions at 2 mg/mL and filtered through 0.22 μm filters prior to GPC and DLS analyses. DOX loading and release were quantified using ultraviolet-visible spectrophotometry spectroscopy (UV-Vis, absorbance at 480 nm, SpectraMax M5, Molecular Devices, USA).
All particles entrapping DOX were dissolved in deionized water (0.5 mg/mL), and transferred to six dialysis cassettes (MWCO 10 kDa). […] Drug release patterns were monitored under the sink condition as the volume of dialysis medium was maintained 3,000 times greater (5 L) than the volume of the sample solution in the dialysis cassettes (1.65 mL/cassette, n=3). […] DOX remaining in each dialysis cassette was measured at 0, 1, 3, 6, 10, 24, 34, and 48 h. […]

The subject of series [2] is human non-small cell lung cancer A549 cell line. Nature of the series: Cytotoxicity assay (resazurin cell viability). Type of series: cell-based. The settings on record: A549 cells. The protocol:
A human non-small cell lung cancer A549 cell line was used to determine the cytotoxicity of empty nanoassemblies, DOX-loaded nanoassemblies, and free DOX. Cells were seeded in a 96-well plate (5,000 cells/well) in 100 μL F12K cell culture medium containing 10% FBS. After 24 hours, serial dilutions of the samples were added to the cell plate. Cells were then incubated at 37° C., 5% CO2, for 72 hours, followed by cell viability measurement using a resazurin assay that indicates mitochondrial metabolic activity in live cells. Resazurin solution in PBS (10 μL, 1 mM) was added to the sample-treated cells at the end of the 72-hour treatment period. Three hours later, the fluorescence of resorufin, metabolited resazurin, was measured at 560 nm (excitation)/590 nm (emission). The half maximal inhibitory concentration (IC50) was calculated with Prism software (GraphPad, USA).

As to `COc1cccc2c1C(=O)c1c(O)c3c(c(O)c1C2=O)C[C@@](O)(C(=O)CO)C[C@@H]3O[C@H]1C[C@H](N)[C@H](O)[C@H](C)O1.Cl` [Free DOX, doxorubicin hydrochloride], the “Accumulated drug release at pH 5.0 in 48 h” value in series [1] (pH 5.0, 48 h) was 100%. For the same compound, in series [1] (pH 7.4, 48 h), the “Accumulated drug release at pH 7.4 in 48 h” value stood at 100%. Also, the IC50 (as a rule, the point on the concentration scale where inhibition reaches its midpoint) in series [2] (72 hours incubation, resazurin assay, DOX equivalent) was determined as 530 ± 200 nM. Besides, in series [2] (IC50 relative to free DOX (fold)), the Relative cytotoxicity was 1.00.

The record behind these values is patent publication US20130071482A1, “BLOCK COPOLYMER CROSS-LINKED NANOASSEMBLIES AS MODULAR DELIVERY VEHICLES” (THE UNIVERSITY OF KENTUCKY RESEARCH FOUNDATION, priority 2011, published 2013).
